Reference: patent US7579488B2 (Eli Lilly and Company, priority 2003, dated 2009)
Values joined by “and” are separate entries in the source; they are usually repeats but may differ in a detail not shown here. Equal entries are not always repeated.

Key:
Assay type in all cases: cell-based
RXR-VDR heterodimer = target: T1, RXR-VDR heterodimer (Homo sapiens, UniProt P11473); assay: RXR-VDR heterodimerization assay (SaOS-2 cells); settings: Gal4-RXR-DEF/VP16-VDR-LBD luciferase reporter, several values in a cell separated by /
T1 construct: Add the Gal4-RXR-DEF and VP16-VDR-LBD; expressed in transfected cells; host or cells: SaOS-2 cells
T1 sequence (P11473 127-423 limits assumed): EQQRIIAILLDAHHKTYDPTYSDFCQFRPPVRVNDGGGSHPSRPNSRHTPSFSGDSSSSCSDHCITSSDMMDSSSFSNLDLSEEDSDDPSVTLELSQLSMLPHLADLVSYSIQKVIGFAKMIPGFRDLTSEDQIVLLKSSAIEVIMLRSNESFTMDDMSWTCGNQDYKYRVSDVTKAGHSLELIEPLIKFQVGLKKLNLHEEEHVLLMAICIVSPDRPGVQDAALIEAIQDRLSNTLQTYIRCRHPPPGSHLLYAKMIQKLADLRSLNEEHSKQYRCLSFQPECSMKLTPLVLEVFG
T1 sequence (P19793 201-462 partner limits assumed): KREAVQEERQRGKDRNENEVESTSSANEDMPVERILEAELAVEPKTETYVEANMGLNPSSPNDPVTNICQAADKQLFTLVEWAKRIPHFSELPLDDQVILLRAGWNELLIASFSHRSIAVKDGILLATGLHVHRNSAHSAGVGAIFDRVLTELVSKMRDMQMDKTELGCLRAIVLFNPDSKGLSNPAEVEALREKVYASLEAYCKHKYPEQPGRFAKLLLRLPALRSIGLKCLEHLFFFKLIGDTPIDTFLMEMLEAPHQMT
Protocol: 1. The RXR-VDR Heterodimer Assay:
This assay provides the VDR activity of a test compound.
(1) Materials and Method for RXR-VDR Heterodimerization Assay:
Luciferase Assay Reagent: • Use Steady-Glo Luciferase Reagent from Promega (Cat #E2550) Consists of: a. E2533 Assay Substrate, lyopholized product and b. E2543 Assay Buffer. • Thaw at room temperature • Store Cell Harvesting Aspirate media from culture flask, rinse cells with HBSS and aspirate. Add trypsin and incubate. When cells appear detached, resuspend cells in growth media. Transfer into a new flask with fresh growth media for passaging the cells. Plate well plates and two extra plates A. Cell Count Mix the cell suspension using pipette Use Hematocytometer to count the cells Load cell suspension onto the hemocytometer chamber Count cells. […] In sterile flask add cell suspension to plating media. Mix. Add cells/well. Place the cells in the incubator. Cells should be about 75% confluent prior to transfection. DAY 2: Transfection Step 1: DNA and Media Add plain DMEM media to tubes for mixing the DNA Add the Reporter gene pFR-LUC Add the Gal4-RXR-DEF and VP16-VDR-LBD Step 2: FuGENE and Media Prepare plain DMEM media in a ubes for mixing FuGENE Add FuGENE 6 Transfection Reagent Incubate Step 3: FuGENE, DNA and Media Complex Add FuGENE Media complex from step 2 to DNA Media complex from step 1 Incubate Step 4: FuGENE, DNA and Media Complex to-well plate Add FuGENE-DNA-Media complex from step 3 to each plate Incubate. […] Day 4: Luciferase Assay Read the plates after drug treatment Remove part of media from all the wells and leave remainder Add Steady-Glo Luciferase Reagent mixture/wells Incubate Count each well using a Luminescence counter, Top Count NXT by Packard
Set a delay between plates to reduce the background.

rat osteocalcin promoter = assay: OCN (osteocalcin) promoter assay; settings: RG-15 (ROS 17/2.8) cells
Protocol: 3. The OCN (Osteocalcin) Promoter Assay
The OCN Promoter Assay is an indicator and marker for osteoporosis. […] Preferred assay results are less than 50 nM.
(3) Materials and Method for The OCN Promoter Assay:
The activation of osteocalcin by VDR ligands was evaluated in a rat osteoblast-like cell line RG-15 (ROS 17/2.8) stably expressing rat osteocalcin promoter fused with luciferase reporter gene. […] Confluent RG-15 cells maintained in DMEM/F-12 medium (3:1) containing 5% FBS, 300 μg/ml G418 and at 37° C. under 5% CO2/95% air atmosphere were trypsinized (0.25% trypsin) and plated into white opaque 96-well cell culture plates (25000 cells/well). After 24 hr, cells (in DMEM/F-12 medium+2% FBS) were treated with various concentrations of compounds, dissolved in DMSO. The final DMSO concentration remained at 0.01% (v/v). After 48 hr treatment, the medium was removed, cells were lysed with 50 μl of lysis buffer (From Luciferase reporter assay system, Roche Diagnostics, Indianapolis, Ind.) and assayed for luciferase activity using the Luciferase Reporter Gene Assay kit from Boehringer Mannheim as per manufacturer's specifications.

KERtr cells = assay: Keratinocyte proliferation assay; settings: Homo sapiens, 72 h, BrdU incorporation, several values separated by /, read-out: Kera. Prolif. IC50
Protocol: 5. The Keratinocyte Proliferation Assay
This Assay is indicative for the treatment of psoriasis.
(5) The Keratinocyte Proliferation Assay:
KERtr cells (Human skin keratinocyte transformed with a retrovirus vector, obtained from ATCC) were plated in 96-well flat-bottomed plates (3000 cells/well) in 100 μl keratinocyte serum free medium supplemented with bovine pituitary extract in the absence of EGF (Life Technologies, Rockville, Md.) and incubated at 37° C. for two days. The cells were treated with various concentrations of VDR ligands (ten-fold serial dilution from 10,000 nM to 0.1 nM in triplicate), dissolved in 100 μl keratinocyte serum free medium supplemented with bovine pituitary extract in the absence of EGF and incubated at 37° C. for 72 hr. […] Potency values (IC50) values were determined as the concentration (nM) of compound that elicited a half-maximal response.

[1] = Rattus norvegicus, 48 h, 48 hr treatment, luciferase, several values separated by /
[2] = 48 hr treatment, luciferase, several values separated by /

Compound | EC50 (RXR-VDR heterodimer) | EC50 (rat osteocalcin promoter; [1]) [µM] | IC50 (KERtr cells) [µM] | EC50 (rat osteocalcin promoter; Rattus norvegicus, comparison compounds) [µM] | EC50 (rat osteocalcin promoter; [2]) [µM]
CCC(CC)(c1ccc(OCC(=O)C(C)(C)C)c(C)c1)c1cc2cc(C(=O)N(C)CC(=O)O)ccc2o1 | 0.009 µM | 0.007 | 0.01 | – | –
Cc1cc(C2(c3ccc(OCC(=O)C(C)(C)C)c(C)c3)CCCCC2)ccc1OCC(=O)C(C)(C)C [CC, 1-(4-{1-[4-(3,3-Dimethyl-2-oxo-butoxy)-3-methyl-phenyl]-cyclohexyl}-2-methyl-phenoxy)-3,3-dimethyl-butan-2-one, reference compound] | – | – | – | 2.68 | –
CCC(CC)(c1ccc(OCC2(C(C)(C)C)OCCO2)c(C)c1)c1cc2cc(C(=O)O)ccc2o1 [Ex 15, 2-{1-[4-(2-tert-Butyl-[1,3]dioxolan-2-ylmethoxy)-3-methyl-phenyl]-1-ethyl-propyl}-benzofuran-5-carboxylic acid] | 1.35 µM and 0.627 µM | 0.634 | – | – | –
CCC(CC)(c1ccc(OCC2(C(C)(C)C)OCCO2)c(C)c1)c1cc2cc(C(=O)NCC(=O)O)ccc2o1 [Ex 16, [(2-{1-[4-(2-tert-butyl-[1,3]dioxolan-2-ylmethoxy)-3-methyl-phenyl]-1-ethyl-propyl}-benzofuran-5-carbonyl)-amino]-acetic acid] | 0.57 µM and 0.071 µM | 0.027 | – | – | 0.044
CCC(CC)(c1ccc(OCC(O)C(C)(C)C)c(C)c1)c1cc(C)c2oc(C(=O)O)cc2c1 (stereo not drawn) [Ex 22, 5-{1-Ethyl-1-[4-(2-hydroxy-3,3-dimethyl-butoxy)-3-methyl-phenyl]-propyl}-7-methyl-benzofuran-2-carboxylic acid] | 0.027 µM | 0.001 | 0.109 | – | –
CCC(CC)(c1ccc(OCC2(C(C)(C)C)OCCO2)c(C)c1)c1cc(C)c2oc(C(=O)O)cc2c1 [Ex 23, 5-{1-[4-(2-tert-Butyl-[1,3]dioxolan-2-ylmethoxy)-3-methyl-phenyl]-1-ethylpropyl}-7-methyl-benzofuran-2-carboxylic acid] | 0.66 µM and 0.32 µM | 0.127 | – | – | 0.088
CCC(CC)(c1ccc(OCC2(C(C)(C)C)OCCO2)c(C)c1)c1cc(C)c2oc(C(=O)NCC(=O)O)cc2c1 [Ex 24, [(5-{1-[4-(2-tert-butyl-[1,3]dioxolan-2-ylmethoxy)-3-methyl-phenyl]-1-ethyl-propyl}-7-methyl-benzofuran-2-carbonyl)-amino]-acetic acid] | 0.851 µM | 0.431 | – | – | –
CCC(CC)(c1ccc(OCC2(C(C)(C)C)OCCO2)c(C)c1)c1cc(C)c2oc(C(=O)N(C)C)cc2c1 [Ex 25, 5-{1-[4-(2-tert-Butyl-[1,3]dioxolan-2-ylmethoxy)-3-methyl-phenyl]-1-ethyl-propyl}-7-methyl-benzofuran-2-carboxylic acid dimethylamide] | 0.067 µM | 1 | 1 | – | –
CCC(CC)(c1ccc(OCC(=O)C(C)(C)C)c(C)c1)c1cc(C)c2oc(C(=O)N(C)C)cc2c1 [Ex 26, 5-{1-[4-(3,3-Dimethyl-2-oxo-butoxy)-3-methyl-phenyl]-1-ethyl-propyl}-7-methyl-benzofuran-2-carboxylic acid dimethylamide] | – | 0.017 | – | – | –
CCC(CC)(c1ccc(OCC(O)C(C)(C)C)c(C)c1)c1cc(C)c2oc(C(=O)N(C)C)cc2c1 (stereo not drawn) [Ex 27, 5-{1-Ethyl-1-[4-(2-hydroxy-3,3-dimethyl-butoxy)-3-methyl-phenyl]-propyl}-7-methyl-benzofuran-2-carboxylic acid dimethylamide] | 0.154 µM and 0.051 µM | 0.009 | > 1 | – | 0.017
CCC(CC)(c1ccc(OCC(O)C(C)(C)C)c(C)c1)c1cc(C)c2oc(C(=O)NCC(=O)O)cc2c1 (stereo not drawn) [Ex 29, [(5-{1-Ethyl-1-[4-(2-hydroxy-3,3-dimethyl-butoxy)-3-methyl-phenyl]-propyl}-7-methyl-benzofuran-2-carbonyl)-amino]-acetic acid] | 0.071 µM | 0.003 | 0.414 | – | –
CCC(CC)(c1ccc(OCC(=O)C(C)(C)C)c(C)c1)c1ccc2oc(C(=O)N(C)C)c(C)c2c1 [Ex 36, 5-{1-[4-(3,3-dimethyl-2-oxo-butoxy)-3-methyl-phenyl]-1-ethyl-propyl}-3-methyl-benzofuran-2-carboxylic acid dimethylamide] | 0.536 µM | 0.21 | – | – | –
CCC(CC)(c1ccc(OCC(=O)C(C)(C)C)c(C)c1)c1cc2ccc(OS(C)(=O)=O)cc2o1 [Ex 40, methanesulfonic acid 2-{1-[4-(3,3-dimethyl-2-oxo-butoxy)-3-methyl-phenyl]-1-ethyl-propyl}-benzofuran-6-yl ester] | 0.08 µM | – | – | – | –
CCC(CC)(c1ccc(OCC(=O)C(C)(C)C)c(C)c1)c1cc2cc(C(=O)OC)ccc2o1 [Ex. 1] | – | 0.001 | 0.071 | – | –
CCC(CC)(c1ccc(OCC(O)C(C)(C)C)c(C)c1)c1cc2cc(C(=O)N(C)C)ccc2o1 (stereo not drawn) [Ex. 6, 2-{1-Ethyl-1-[4-(2-hydroxy-3,3-dimethyl-butoxy)-3-methyl-phenyl]-propyl}-benzofuran-5-carboxylic acid dimethylamide] | 0.41 µM and 0.079 µM | 0.068 | – | – | 0.047
CCC(CC)(c1ccc(OCC(=O)C(C)(C)C)c(C)c1)c1cc2cc(C(=O)NC(C)(C)C(=O)O)ccc2o1 [Ex. 10, 2-[(2-{1-[4-(3,3-Dimethyl-2-oxo-butoxy)-3-methyl-phenyl]-1-ethyl-propyl}-benzofuran-5-carbonyl)-amino]-2-methyl-propionic acid] | 0.235 µM | 0.275 | 0.215 | – | –
